Values quoted from earlier work as cited in PMC5882164, “A novel calcimimetic agent, evocalcet (MT-4580/KHK7580), suppresses the parathyroid cell function with little effect on the gastrointestinal tract or CYP isozymes in vivo and in vitro” (PLoS ONE, 2018).
Counter-ions that a name gives are not always drawn.

Conditions: rats; no reference given; cited from earlier work

C[C@@H](NCCCc1cccc(C(F)(F)F)c1)c1cccc2ccccc12 [cinacalcet, Cinacalcet hydrochloride, reference compound]
bioavailability: 1%-2%
